From paper PMC3079055 (Archives of biochemistry and biophysics, 2011)

Tests used:
[1] = target: C. albicans CYP51F1 Y132H mutant (Candida albicans, UniProt P10613, Y132H); experiment: Spectral binding titration of purified CYP51F1 Y132H mutant
[2] = target: C. albicans CYP51F1 D116E mutant (Candida albicans, UniProt P10613, D116E); experiment: Spectral binding titration of purified CYP51F1 D116E mutant
[3] = target: C. albicans CYP51F1 R467K mutant (Candida albicans, UniProt P10613, R467K); experiment: Spectral binding titration of purified CYP51F1 R467K mutant
[4] = target: C. albicans CYP51F1 F105L mutant (Candida albicans, UniProt P10613, F105L); experiment: Spectral binding titration of purified CYP51F1 F105L mutant
[5] = target: C. albicans CYP51F1 wild-type (Candida albicans, UniProt P10613); experiment: Spectral binding titration of purified CYP51F1 wild type

Clc1ccc(COC(Cn2ccnc2)c2ccc(Cl)cc2Cl)cc1 (centres unmarked) [Econazole, econazole]
Kd [1]: 420 ± 60 nM | Kd [2]: 140 ± 30 nM | Kd [3]: 130 ± 30 nM | Kd [4]: 100 ± 30 nM | Kd [5]: 200 ± 40 nM

CC(C)=CCC[C@@H](C)[C@H]1CC[C@@]2(C)C3=C(CC[C@]12C)[C@@]1(C)CC[C@H](O)C(C)(C)[C@@H]1CC3 [lanosterol, Lanosterol]
Kd [5]: 6700 nM

OC(Cn1cncn1)(Cn1cncn1)c1ccc(F)cc1F [Fluconazole, fluconazole]
Kd [1]: 150 ± 60 nM | Kd [2]: 30 ± 10 nM | Kd [3]: 60 ± 10 nM | Kd [4]: 20 ± 10 nM | Kd [5]: 60 ± 10 nM

CC(=O)N1CCN(c2ccc(OCC3COC(Cn4ccnc4)(c4ccc(Cl)cc4Cl)O3)cc2)CC1 (centres unmarked) [Ketoconazole, ketoconazole]
Kd [1]: 540 ± 70 nM | Kd [2]: 430 ± 80 nM | Kd [3]: 660 ± 130 nM | Kd [4]: 170 ± 40 nM | Kd [5]: 420 ± 80 nM

CCC(C)n1ncn(-c2ccc(N3CCN(c4ccc(OCC5COC(Cn6cncn6)(c6ccc(Cl)cc6Cl)O5)cc4)CC3)cc2)c1=O (centres unmarked) [Itraconazole, itraconazole]
Kd [2]: 150 ± 30 nM | Kd [3]: 180 ± 40 nM | Kd [4]: 160 ± 40 nM | Kd [5]: 190 ± 60 nM
